Structures can show the parent of a compound that is named as a salt.
Legend:
[1] = test system: dermal Arthus reaction (Type III hypersensitivity); assay: reverse passive Arthus assay (Carter and Krause); assay type: in vivo, rats (male Sprague-Dawley); details: 100 mg/kg, oral, 30 min before intradermal AntiB.S.A.; lesion after 4 hours; 4 rats per group
Protocol: Proc. 35, 774 (1976). Each compound was administered orally to a group of four animals. The reserve passive Arthus reaction test in rats is conducted as follows: Male Sprague-Dawley rats weighing approximately 130-160 g. are used, 4 rats per group. All animals are injected intravenously with 0.5 ml. 0.075% Bovine Serum Albumin (B.S.A.) +2% Evans Blue solution. Each rat then receives an oral dose of drug; one drug is administered per group. Thirty minutes subsequent to drug dosing, each animal is injected intradermally with 0.05 ml. 1.44% AntiB.S.A. into the dorsal skin. Four hours later the animals are sacrificed, the dorsal skin reflexed, and the lesion excised. Two perpendicular diameters of each lesion are measured. The average diameters of the lesions from the treated groups are compared with the average diameters from the control group to determine any drug effect. […] Proc. 35, 774 (1976)]. Each compound was administered orally to a group of four animals.

[2] = test system: carrageenin pleurisy (accumulation of exudate volume and leukocytes); assay: carrageenin pleurisy assay (modification of Vinegar et al.); assay type: in vivo; details: Dose 100 (unit not given); for % Inhibition, Volume exudates: exudate volume; for % Inhibition, Cells: leukocyte accumulation
Description: The anti-inflammatory activity of these compounds was established by using a modification of the carrageenin pleurisy assay described by Vinegar et al. Proc. Soc. Exp. Biol. Med. 143:711 (1973).

| SMILES | % Inhibition of lesion of dermal Arthus reaction [1] | % Inhibition, Volume exudates [2] [%] | % Inhibition, Cells [2] [%] |
| --- | --- | --- | --- |
| Cl.N#CCCN(N)c1ncco1 [3-[1-(2-Oxazolyl)hydrazino]propanenitrile hydrochloride] | 42% | 32 | 21 |
| Cc1nc(N(N)CCC#N)oc1C.Cl [3-[1-(4,5-dimethyl-2-oxazolyl)-hydrazino]propanenitrile hydrochloride] | 38% |  |  |
| N#CCCN(N)c1nc(-c2ccccc2)c(-c2ccccc2)o1 [3-[1-(4,5-diphenyl-2-oxazolylhydrazino)]propanenitrile hydrochloride] | 40% |  |  |
| Cl.N#CCCN(N)c1nc(-c2ccccc2)co1 [3-[1-(4-Phenyl-2-oxazolyl)-hydrazino]propanenitrile hydrochloride] | 59% |  |  |
| CCCCC1C(=O)N(c2ccccc2)N(c2ccccc2)C1=O [Phenylbutazone, reference compound] | Inactive | 59 | 13 |

Reference: US4489084A, “[1-(2-Oxazolyl) or -(2-thiazolyl) hydrazino]alkyl nitriles” (Abbott Laboratories, priority 1983, dated 1984)
